Here are results for 24 compounds from US9060949B2, “Menthyl carbamate compounds as skin and/or hair lightening actives” (SYMRISE AG, priority 2010, dated 2015).

One test concerns B16V mouse melanoma cells. The experiment in a line: Depigmenting effect on melanoma cell cultures (inhibition of pigmentation). The class given is cell-based. Particulars: 96 h, read-out: IC 50 (concentration at which pigmentation is inhibited by 50%). The procedure:
B16V mouse melanoma cells are disseminated in a 96-well microtitre plate in a concentration of 5×10^3 cells/well. After cultivation for 24 h at 37° C. and 5% CO2 in RPMI medium, enriched with 10% foetal calf serum, various concentrations of the test substances and 0.3 mM tyrosine and 10 nM α-MSH (α-melanocyte stimulating hormone) are added and incubated for a further 96 h. The maximum concentration of the test substances used corresponds to 0.1 times the value of the IC20 value of the cytotoxicity assay. Standards are incubated with kojic acid in concentrations of 0.01 mM, 0.1 mM and 1 mM in addition to tyrosine and α-MSH. Only tyrosine and α-MSH are added to the controls. After incubation, sodium lauryl sulfate and sodium hydroxide solution (final concentrations: 1 mM and 1 M respectively) are added to the culture medium and the absorption (A) is measured after 3 h at 400 nm.
The inhibition of pigmentation in the presence of the test compounds or kojic acid was calculated using the following equation: Inhibition of pigmentation(%)=100−[(Atest compound/Acontrol)×100] wherein Atest compound=absorption of the wells with test substance and with cells Acontrol=absorption of the wells without test substance, but with cells
From the inhibition of pigmentation (%) in a series of dilutions of test compounds, the IC50 for each test compound is calculated. This is the concentration of a test compound at which pigmentation is inhibited by 50%.
For `CC(C)[C@@H]1CC[C@@H](C)C[C@H]1OC(=O)NCc1ccc2c(c1)OCO2` [BIO1571, Benzo[1,3]dioxol-5-ylmethyl-carbamic acid (1R,2S,5R)-2-isopropyl-5-methyl-cyclohexyl ester], the IC50 came to 5.5 µM.

Staying with this test, now noted: B16V cells, 0.3 mM tyrosine and 10 nM α-MSH, 96 h incubation, absorption at 400 nm, read-out: IC 50 (concentration at which pigmentation is inhibited by 50%).
Take `CNC(=O)O[C@@H]1C[C@H](C)CC[C@H]1C(C)C` [BIO1185, Methyl-carbamic acid (1R,2S,5R)-2-isopropyl-5-methyl-cyclohexyl ester]: the IC50 came out at 109 µM.

In the case of `CC(C)[C@@H]1CC[C@@H](C)C[C@H]1OC(=O)Nc1ccccc1` [BIO1580, Phenyl-carbamic acid (1R,2S,5R)-2-isopropyl-5-methyl-cyclohexyl ester], the IC50 came to 6.9 µM.

Regarding `COCCNC(=O)O[C@@H]1C[C@H](C)CC[C@H]1C(C)C` [BIO1336, (2-Methoxy-ethyl)-carbamic acid (1R,2S,5R)-2-isopropyl-5-methyl-cyclohexyl ester], the IC50 came to 35.3 µM. For `CC(C)[C@@H]1CC[C@@H](C)C[C@H]1OC(=O)NC1CCCCC1` [BIO1266, Cyclohexyl-carbamic acid (1R,2S,5R)-2-isopropyl-5-methyl-cyclohexyl ester], the IC50 is 18.8 µM. For the compound `CC(=O)c1ccccc1NC(=O)O[C@@H]1C[C@H](C)CC[C@H]1C(C)C` [BIO1633, (2-Acetyl-phenyl)-carbamic acid (1R,2S,5R)-2-isopropyl-5-methyl-cyclohexyl ester], the IC50 was found to be 25.4 µM. As for `COCCCNC(=O)O[C@H]1C[C@@H](C)CC[C@@H]1C(C)C` [BIO1339, (3-Methoxy-propyl)-carbamic acid (1S,2R,5S)-2-isopropyl-5-methyl-cyclohexyl ester], the IC50 turned out to be 53.2 µM. As for `OC[C@H]1O[C@@H](Oc2ccc(O)cc2)[C@H](O)[C@@H](O)[C@@H]1O` [beta-Arbutin, reference compound], the IC50 amounted to 67 µM. For the compound `CCNC(=O)O[C@@H]1C[C@H](C)CC[C@H]1C(C)C` [BIO1151, Ethyl-carbamic acid (1R,2S,5R)-2-isopropyl-5-methyl-cyclohexyl ester], the IC50 was 40.9 µM. Consider `CCCCNC(=O)O[C@@H]1C[C@H](C)CC[C@H]1C(C)C` [BIO1267, Butyl-carbamic acid (1R,2S,5R)-2-isopropyl-5-methyl-cyclohexyl ester], for which the IC50 was 498 µM. As to `CCNC(=O)O[C@H]1C[C@@H](C)CC[C@@H]1C(C)C` [BIO1378, Ethyl-carbamic acid (1S,2R,5S)-2-isopropyl-5-methyl-cyclohexyl ester], the IC50 worked out at 29.3 µM. On the same count and under the same terms, with `CCCCCCNC(=O)O[C@@H]1C[C@H](C)CC[C@H]1C(C)C` [BIO1271, Hexyl-carbamic acid (1R,2S,5R)-2-isopropyl-5-methyl-cyclohexyl ester] the figure was 18.9 µM; with `CCNC(=O)O[C@H]1C[C@H](C)CC[C@H]1C(C)C` [BIO1461, Ethyl-carbamic acid (1S,2S,5R)-2-isopropyl-5-methyl-cyclohexyl ester], 28.7 µM; with `CC(C)CNC(=O)O[C@@H]1C[C@H](C)CC[C@H]1C(C)C` [BIO1159, Isobutyl-carbamic acid (1R,2S,5R)-2-isopropyl-5-methyl-cyclohexyl ester], 100 µM.

With `CC(C)[C@@H]1CC[C@@H](C)C[C@H]1OC(=O)NCC1CCCCC1` [BIO1699, Cyclohexylmethyl-carbamic acid (1R,2S,5R)-2-isopropyl-5-methyl-cyclohexyl ester], the IC50 amounted to 1.4 µM. Same read-out and setting: with `CC(C)[C@@H]1CC[C@@H](C)C[C@H]1OC(=O)NCC1CCCO1` (stereo partly drawn) [BIO1702, (Tetrahydro-furan-2-ylmethyl)-carbamic acid (1R,2S,5R)-2-isopropyl-5-methyl-cyclohexyl ester] the figure was 14.8 µM; with `CC(C)[C@@H]1CC[C@@H](C)C[C@H]1OC(=O)NCCCCCCO` [BIO1662, (6-Hydroxy-hexyl)-carbamic acid (1R,2S,5R)-2-isopropyl-5-methyl-cyclohexyl ester], 50.7 µM; with `COCCCNC(=O)O[C@H]1C[C@H](C)CC[C@H]1C(C)C` [BIO1460, (3-Methoxy-propyl)-carbamic acid (1S,2S,5R)-2-isopropyl-5-methyl-cyclohexyl ester], 7.3 µM. For `CCN(CC)C(=O)O[C@@H]1C[C@H](C)CC[C@H]1C(C)C` [BIO1553, Diethyl-carbamic acid (1R,2S,5R)-2-isopropyl-5-methyl-cyclohexyl ester], the IC50 is 10.7 µM. Turning to `CC(C)[C@@H]1CC[C@@H](C)C[C@H]1OC(=O)NCc1ccccc1` [BIO1695, Benzyl-carbamic acid (1R,2S,5R)-2-isopropyl-5-methyl-cyclohexyl ester], the IC50 is 7.7 µM.

Consider `COCCCNC(=O)O[C@@H]1C[C@H](C)CC[C@H]1C(C)C` [BIO1155, (3-Methoxy-propyl)-carbamic acid (1R,2S,5R)-2-isopropyl-5-methyl-cyclohexyl ester], for which the IC50 came to 22.1 µM. `CC(C)OCCCNC(=O)O[C@@H]1C[C@H](C)CC[C@H]1C(C)C` [BIO1268, (3-Isopropoxy-propyl)-carbamic acid (1R,2S,5R)-2-isopropyl-5-methyl-cyclohexyl ester]: the IC50 stood at 19.6 µM. On to `CCOc1ccccc1NC(=O)O[C@@H]1C[C@H](C)CC[C@H]1C(C)C` [BIO1632, (2-Ethoxy-phenyl)-carbamic acid (1R,2S,5R)-2-isopropyl-5-methyl-cyclohexyl ester], for which the IC50 came out at 3.2 µM.

Take `CNC(=O)O[C@H]1C[C@@H](C)CC[C@@H]1C(C)C` [BIO1301, Methyl-carbamic acid (1S,2R,5S)-2-isopropyl-5-methyl-cyclohexyl ester]: the IC50 was determined as 63.9 µM.

Another test deals with Pigmented pig skin. Put plainly: Depigmenting effect on ex vivo skin (melanin granules, Fontana-Masson staining, image analysis). Particulars: 1 wt.% in O/W emulsion applied topically, 6 days, vs. emulsion without test compound. It is filed as cell-based. The procedure:
Pigmented pig skin was excised from animals (slaughtered for meat production; the pig skin model included the subcutis fat layer as described in EP 1 939 27), cut into 4×4×3 mm pieces (length×width×height) and placed in culture at the air-liquid interface on a sterilized cotton pad soaked with 5 ml of customized DMEM (Dulbecco's Modified Eagle Medium). Assays were started 24 h after sample acclimatization at 37° C., 5% CO2. O/W emulsions (as described in more detail below) without (=control) and with the test compounds, respectively, were applied topically and incubated for 6 days. Histological sections were prepared and melanin granules stained by Fontana-Masson technique. The granules were quantified by image analysis.
The O/W emulsions used had the following composition:
Phases A and B are heated to 70° C. separately. Pemulen TR1 as well as Ultrez-21 are dispersed in phase B when heated to 70° C. Phase B/C is added to phase A by mixing with an Ultra Turrax, followed by emulsifying. Phase D is slowly added to phase A/B/C using a paddle mixer and a pH 5.5-6 is adjusted. The formulation is cooled down while mixing with a paddle mixer. Phase E is prepared by dissolving one or more compounds of formula (I) in Hydrolite-5. Subsequently, phase E is added to the mixture of phase A-D.
In the case of `CCNC(=O)O[C@@H]1C[C@H](C)CC[C@H]1C(C)C` [BIO1151, Ethyl-carbamic acid (1R,2S,5R)-2-isopropyl-5-methyl-cyclohexyl ester], the “Melanin score vs. Control” value is listed as −44%. Consider `COCCCNC(=O)O[C@@H]1C[C@H](C)CC[C@H]1C(C)C` [BIO1155, (3-Methoxy-propyl)-carbamic acid (1R,2S,5R)-2-isopropyl-5-methyl-cyclohexyl ester], for which the “Melanin score vs. Control” value is −46%.
